The test system of one data set is HBV. Nature of the data set: anti HBV activity, HepG2.117 inducibly HBV producing cell line (Tet-off), intracellular HBV DNA by realtime PCR. The class given is cell-based. The following applies: Hepatitis B virus, 72 h, HepG2.117 cells, 3 days of treatment.
Data set [1] in a line: Cytotoxicity, HepG2 cells, Resazurin assay. The format is cell-based. The following applies: human. (In general: Resazurin is reduced to fluorescent resorufin, in cell work by metabolically active cells.)

pEC50: −log10 of the molar value.

For orientation: pEC50 means −log10 of the EC50, conventionally taken in molar units. In general, CC50 refers to the concentration at which the toxic effect on the cells reaches its halfway point. On to `C[C@H](CO)NS(=O)(=O)c1cn(C)c(C(=O)Nc2ccnc(Cl)c2)c1Cl` [Compound 89, 3-chloro-N-(2-chloro-4-pyridyl)-4-[[(1R)-2-hydroxy-1-methyl-ethyl]sulfamoyl]-1-methyl-pyrrole-2-carboxamide], for which the pEC50 with HBV is 6.44. This molecule showed a cytotoxic concentration (CC50) at 4 days in data set [1] above 25 µM.
The molecule `C[C@@H](NS(=O)(=O)c1cn(C)c(C(=O)Nc2ccnc(C(F)(F)F)c2)c1Cl)C(C)(F)F` [Compound 150, 3-chloro-4-[[(1R)-2,2-difluoro-1-methyl-propyl]sulfamoyl]-1-methyl-N-[2-(trifluoromethyl)-4-pyridyl]pyrrole-2-carboxamide] gave a pEC50 in the data set on HBV of 7.05. Moreover, the CC50 at 4 days in data set [1] is above 25 µM.
`C[C@@H](NS(=O)(=O)c1cn(C)c(C(=O)Nc2ccc(F)c(C#N)n2)c1C#N)C(F)(F)F` [Compound 181, 3-cyano-N-(6-cyano-5-fluoro-2-pyridyl)-1-methyl-4-[[(1R)-2,2,2-trifluoro-1-methyl-ethyl]sulfamoyl]pyrrole-2-carboxamide] showed a negative logarithm of the EC50 (pEC50) with HBV of 6.00. This molecule displayed a half-maximal cytotoxic concentration (CC50) at 4 days in data set [1] above 25 µM.
For `Cn1cc(S(=O)(=O)N[C@H]2C[C@@H](O)C2)c(Cl)c1C(=O)Nc1ccnc(Cl)c1` [Compound 93, 3-chloro-N-(2-chloro-4-pyridyl)-4-[(3-hydroxycyclobutyl)sulfamoyl]-1-methyl-pyrrole-2-carboxamide], in that order: 6.48 and above 25 µM.
For `CC[C@@H](NS(=O)(=O)c1cn(C)c(C(=O)Nc2ccnc(Cl)c2F)c1Cl)C(F)(F)F` [Compound 112, 3-chloro-N-(2-chloro-3-fluoro-4-pyridyl)-1-methyl-[[(1R)-1-(trifluoromethyl)propyl]sulfamoyl]pyrrole-2-carboxamide], in that order: 7.70 and above 25 µM.
The molecule `C[C@@H](NS(=O)(=O)c1cn(C)c(C(=O)Nc2ccnc(C#N)c2F)c1F)C(F)(F)F` [Compound 155, N-(2-cyano-3-fluoro-4-pyridyl)-3-fluoro-1-methyl-4-[[(1R)-2,2,2-trifluoro-1-methyl-ethyl]sulfamoyl]pyrrole-2-carboxamide] had a negative-log EC50 (pEC50) with HBV of 7.70. The CC50 at 4 days in data set [1] was above 25 µM.
The matching figures for `Cn1cc(S(=O)(=O)NC2(C)CC(F)(F)C2)c(Cl)c1C(=O)Nc1ccnc(Br)c1F` [Compound 161, N-(2-bromo-3-fluoro-4-pyridyl)-3-chloro-4-[(3,3-difluoro-1-methyl-cyclobutyl)sulfamoyl]-1-methyl-pyrrole-2-carboxamide]: 8.00 and above 25 µM.
In the case of `C[C@H](NS(=O)(=O)c1cn(C)c(C(=O)Nc2ccnc(C#N)c2)c1F)C(C)(F)F` [Compound 58, N-(2-cyano-4-pyridyl)-4-[[(1S)-2,2-difluoro-1-methyl-propyl]sulfamoyl]-3-fluoro-1-methyl-pyrrole-2-carboxamide], in the data set with HBV, the negative logarithm of the EC50 (pEC50) is 6.85. This molecule showed a 50% cytotoxic concentration (CC50) at 4 days in data set [1] above 25 µM.
The matching figures for `Cn1cc(S(=O)(=O)NC2(C(F)(F)F)CCC2)c(F)c1C(=O)Nc1ccnc(C(F)F)c1` [Compound 119, N-[2-(difluoromethyl)-4-pyridyl]-3-fluoro-1-methyl-4-[[1-(trifluoromethyl)cyclobutyl]sulfamoyl]pyrrole-2-carboxamide]: 8.30 and above 25 µM.
`Cn1cc(S(=O)(=O)NC2(C(F)(F)F)CCC2)c(Cl)c1C(=O)Nc1ccnc(F)c1` [Compound 111, 3-chloro-N-(2-fluoro-4-pyridyl)-1-methyl-4-[[1-(trifluoromethyl)cyclobutyl]sulfamoyl]pyrrole-2-carboxamide] gave a pEC50 in the data set on HBV of 7.52. Also, the 50% cytotoxic concentration (CC50) at 4 days in data set [1] was above 25 µM.
In turn, `CC(O)C(C)NS(=O)(=O)c1cn(C)c(C(=O)Nc2ccnc(Cl)c2)c1Cl` (racemic) [Compound 90, (+/−)-3-chloro-N-(2-chloro-4-pyridyl)-4-[(2-hydroxy-1-methyl-propyl)sulfamoyl]-1-methyl-pyrrole-2-carboxamide] had a negative logarithm of the EC50 (pEC50) in the data set with HBV of 6.35. The 50% cytotoxic concentration (CC50) at 4 days in data set [1] is above 25 µM.
`C[C@@H](NS(=O)(=O)c1cn(C)c(C(=O)Nc2ccc(F)cn2)c1Cl)C(F)(F)F` [Compound 51, 3-chloro-N-(5-fluoro-2-pyridyl)-1-methyl-4-[[(1R)-2,2,2-trifluoro-1-methyl-ethyl]sulfamoyl]pyrrole-2-carboxamide] had a pEC50 in the data set on HBV of 6.22. Besides, the CC50 at 4 days in data set [1] was above 25 µM.
On to `C[C@@H](NS(=O)(=O)c1cn(C)c(C(=O)Nc2ccnc(C(F)F)c2F)c1Cl)C(C)(F)F` [Compound 147, 3-chloro-N-[2-(difluoromethyl)-3-fluoro-4-pyridyl]-4-[[(1R)-2,2-difluoro-1-methyl-propyl]sulfamoyl]-1-methyl-pyrrole-2-carboxamide], for which the pEC50 in the data set with HBV is 7.70. Besides, the half-maximal cytotoxic concentration (CC50) at 4 days in data set [1] was above 25 µM.
The matching figures for `Cc1cc(NC(=O)c2c(F)c(S(=O)(=O)NC3(C(F)(F)F)CCC3)cn2C)cc(C(F)F)n1` [Compound 173, N-[2-(difluoromethyl)-6-methyl-4-pyridyl]-3-fluoro-1-methyl-4-[[1-(trifluoromethyl)cyclobutyl]sulfamoyl]pyrrole-2-carboxamide]: 7.70 and above 25 µM.
As for `C[C@@H](NS(=O)(=O)c1cn(C)c(C(=O)Nc2ccc(F)nc2F)c1Cl)C(F)(F)F` [Compound 77, 3-chloro-N-(2,6-difluoro-3-pyridyl)-1-methyl-4-[[(1R)-2,2,2-trifluoro-1-methyl-ethyl]sulfamoyl]pyrrole-2-carboxamide], the pEC50 with HBV is 6.52. Besides, the CC50 at 4 days in data set [1] is above 25 µM.
In the data set with HBV, `CC[C@@H](C)NS(=O)(=O)c1cn(C)c(C(=O)Nc2ccnc(C(F)F)c2)c1F` [Compound 86, N-[2-(difluoromethyl)-4-pyridyl]-3-fluoro-1-methyl-4-[[(1R)-1-methylpropyl]sulfamoyl]pyrrole-2-carboxamide] gave a pEC50 of 7.40. The molecule further returned a 50% cytotoxic concentration (CC50) at 4 days in data set [1] of 21.6 µM.
The matching figures for `C[C@@H](NS(=O)(=O)c1cc(C(=O)Nc2ccnc(C#N)c2)n(C)c1)C(C)(F)F` [Compound 101, N-(2-cyano-4-pyridyl)-4-[[(1R)-2,2-difluoro-1-methyl-propyl]sulfamoyl]-1-methyl-pyrrole-2-carboxamide]: 6.37 and above 25 µM.
The matching figures for `C[C@@H](NS(=O)(=O)c1cn(C)c(C(=O)Nc2cnc(F)c(F)c2)c1Cl)C(F)(F)F` [Compound 57, 3-chloro-N-(5,6-difluoro-3-pyridyl)-1-methyl-4-[[(1R)-2,2,2-trifluoro-1-methyl-ethyl]sulfamoyl]pyrrole-2-carboxamide]: 7.22 and above 25 µM.
For `Cn1cc(S(=O)(=O)NC2(C(F)(F)F)CC2)cc1C(=O)Nc1ccnc(Cl)c1` [Compound 52, N-(2-chloro-4-pyridyl)-1-methyl-4-[[1-(trifluoromethyl)cyclopropyl]-sulfamoyl]pyrrole-2-carboxamide], in that order: 7.10 and above 25 µM.
In the data set with HBV, `C[C@H](NS(=O)(=O)c1cn(C)c(C(=O)Nc2ccnc(C(F)(F)F)c2)c1F)C(C)(F)F` [Compound 62, 4-[[(1S)-2,2-difluoro-1-methyl-propyl]sulfamoyl]-3-fluoro-1-methyl-N-[2-(trifluoromethyl)-4-pyridyl]pyrrole-2-carboxamide] showed a negative logarithm of the EC50 (pEC50) of 6.72. Further, in data set [1], the half-maximal cytotoxic concentration (CC50) at 4 days is above 25 µM.
For `C[C@@H](NS(=O)(=O)c1cn(C)c(C(=O)Nc2ccnc(C(F)F)c2F)c1Cl)C(F)(F)F` [Compound 142, 3-chloro-N-[2-(difluoromethyl)-3-fluoro-4-pyridyl]-1-methyl-4-[[(1R)-2,2,2-trifluoro-1-methyl-ethyl]sulfamoyl]pyrrole-2-carboxamide], in that order: 7.70 and above 25 µM.
As to `Cn1cc(S(=O)(=O)NC2(C(F)(F)F)CCC2)c(Cl)c1C(=O)Nc1ccnc(Br)c1` [Compound 110, N-(2-bromo-4-pyridyl)-3-chloro-1-methyl-4-[[1-(trifluoromethyl)cyclobutyl]sulfamoyl]pyrrole-2-carboxamide], the pEC50 with HBV was 7.70. This molecule also displayed a 50% cytotoxic concentration (CC50) at 4 days in data set [1] above 25 µM.
In the data set with HBV, `C[C@H](NS(=O)(=O)c1cn(C)c(C(=O)Nc2ccnc(Cl)c2)c1F)C(C)(F)F` [Compound 59, N-(2-chloro-4-pyridyl)-4-[[(1S)-2,2-difluoro-1-methyl-propyl]sulfamoyl]-3-fluoro-1-methyl-pyrrole-2-carboxamide] showed a negative logarithm of the EC50 (pEC50) of 7.15. Further, the CC50 at 4 days in data set [1] was above 25 µM.
For `Cn1cc(S(=O)(=O)NC2(C(F)(F)F)CCC2)c(F)c1C(=O)Nc1ccnc(Cl)c1` [Compound 122, N-(2-chloro-4-pyridyl)-3-fluoro-1-methyl-4-[[1-(trifluoromethyl)cyclobutyl]sulfamoyl]pyrrole-2-carboxamide], in that order: 8.00 and above 25 µM.
For `C[C@@H](NS(=O)(=O)c1cn(C)c(C(=O)Nc2ccnc(Cl)c2)c1Cl)C(C)(F)F` [Compound 94, 3-chloro-N-(2-chloro-4-pyridyl)-4-[[(1R)-2,2-difluoro-1-methyl-propyl]sulfamoyl]-1-methyl-pyrrole-2-carboxamide], in that order: 7.52 and above 25 µM.
`Cn1cc(S(=O)(=O)NC2(C(F)(F)F)CCC2)c(F)c1C(=O)Nc1ccnc(F)c1` [Compound 169, 3-fluoro-N-(2-fluoro-4-pyridyl)-1-methyl-4-[[1-(trifluoromethyl)cyclobutyl]sulfamoyl]pyrrole-2-carboxamide] showed a pEC50 in the data set on HBV of 7.52. Moreover, the CC50 at 4 days in data set [1] is above 25 µM.
In turn, `CC[C@@H](C)NS(=O)(=O)c1cn(C)c(C(=O)Nc2ccnc(C#N)c2)c1F` [Compound 67] had a pEC50 with HBV of 7.52. The CC50 at 4 days in data set [1] is above 25 µM.
For `Cn1cc(S(=O)(=O)NC2(C)CC(F)(F)C2)c(F)c1C(=O)Nc1ccnc(Br)c1` [Compound 117, N-(2-bromo-4-pyridyl)-4-[(3,3-difluoro-1-methyl-cyclobutyl)sulfamoyl]-3-fluoro-1-methyl-pyrrole-2-carboxamide], in that order: 8.00 and above 25 µM.

The record behind these values is patent publication US11078193B2 (priority 2014, dated 2021).
